From patent publication EP2812315B1, “PYRROLIC DERIVATIVES, PROCESSES FOR PREPARING THE SAME AND THEIR USES AS A DRUG” (Universite Joseph Fourier, priority 2012, dated 2013)
Values after ≈ are worked out from the molar mass of the structure shown.

Key:
Format in all cases: cell-based
[1] = tested on: Staphylococcus warneri (CHUG-Swar1); assay: Other MIC determination, microdilution method (CLSI M07-A9) with modifications; conditions: 10^6 CFU/ml, 18h at 37 °C
Method: (§1) The microdilution method recommended by the Clinical and Laboratory Standard Institute [M07-A9, Vol.32, N°2] was used with the following modifications.
(§2) Bacterial inocula were prepared in Mueller Hinton broth (MH2, BioMérieux, Marcy L'Etoile, France). They were dispensed in 96 well microtiter plates (10^6 CFU/ml of final inoculum, 192 µL per well).
(§3) To avoid cross-contaminations in microtiter plates, one row was left blank between each strain tested. Microplates were incubated for 18h at 37 °C in ambient air. Then MICs were read visually and, in case of visual reading difficulties, confirmed using a spectrophotometer at a wavelength of 630 nm (BioTek® EL808 Absorbance Microplate Reader). MICs corresponded to the minimum pyrrolic compound concentrations that allowed complete visual growth inhibition of bacteria. Drug-free cultures served as growth controls.
(§4) We used four Staphylococcus aureus strains. Two reference strains were provided by the French reference center for Staphylococcus spp. (Lyon, France), including one methicillin-susceptible (MSSA 476) and one methicillin-resistant (MRSA 252) S. aureus strains. The two remaining S. aureus strains were purchased from the CRBIP (Centre de Ressources Biologiques de l'Institut Pasteur): a vancomycin-intermediate strain (ATCC 106414) and a S. aureus strain (SA-1199B) resistant to fluoroquinolones due to overexpression of the NorA multidrug efflux pump. Coagulase-negative Staphylococcus strains included three reference strains purchased from CRBIP: a methicillin-susceptible S. epidermidis strain (ATCC 12228), a methicillin-resistant S. epidermidis strain (ATCC 49461), and a methicillin-susceptible S. sciuri strain (ATCC 29061). We also used 37 clinical strains belonging to the following coagulase-negative Staphylococcus species: S. arlettae (two strains), S. capitis (nine strains), S. epidermidis (one strain), S. haemolyticus (six strains), S. hominis (eight strains), S. lugdunensis (one strain), S. massiliensis (one strain), S. pettenkoferi (two strains), S. saprophyticus (two strains), S. simulans (one strain), and S. warneri (four strains) . Identification of the clinical strains was first obtained using VITEK® 2 System (Biomérieux) and confirmed by amplification and sequencing of the tuf gene (Reference: Bergeron, M., O. Dauwalder, M. Gouy, A.-M. Freydiere, M. Bes, H. Meugnier, Y. Benito, J. Etienne, G. Lina, F. Vandenesch, and S. Boisset. Species identification of staphylococci by amplification and sequencing of the tuf gene compared to the gap gene and by matrix-assisted laser desorption ionization time-of-flight mass spectrometry, Eur. J. Clin. Microbial. Infect. Dis. 2011, 30, 343-354).
(§5) The activity of pyrrolic compounds 3c, 3e-3j and 3n was first tested against 12 Staphylococcus sp. strains, including 7 reference strains and five clinical strains. The MICs of these compounds against Staphylococcus aureus ATCC 106414 (VISA) and Staphylococcus epidermidis ATCC 12228 are in accordance with those described in Tables I and II.

[2] = tested on: Staphylococcus sciuri (ATCC 29061); assay: as above; conditions: Mammaliicoccus sciuri, ATCC29061, 10^6 CFU/ml, 18h at 37 °C
Method: as §1, §2, §3, §4, §5

[3] = tested on: Staphylococcus epidermidis (ATCC 12228); assay: as above; conditions: ATCC12228, 10^6 CFU/ml, 18h at 37 °C
Method: as §1, §2, §3, §4, §5

[4] = tested on: Staphylococcus capitis (CHUG-Scapi1); assay: as above; conditions: 10^6 CFU/ml, 18h at 37 °C
Method: as §1, §2, §3, §4, §5

[5] = tested on: Staphylococcus aureus (ATCC 106414, VISA); assay: as above; conditions: 10^6 CFU/ml, 18h at 37 °C
Method: as §1, §2, §3, §4, §5

[6] = tested on: Staphylococcus pettenkoferi (CHUG-Spet1); assay: as above; conditions: 10^6 CFU/ml, 18h at 37 °C
Method: as §1, §2, §3, §4, §5

[7] = tested on: Staphylococcus hominis(CHUG-Shom1); assay: as above; conditions: 10^6 CFU/ml, 18h at 37 °C
Method: as §1, §2, §3, §4, §5

[8] = tested on: Staphylococcus epidermidis (ATCC 49461); assay: as above; conditions: ATCC49461, 10^6 CFU/ml, 18h at 37 °C
Method: as §1, §2, §3, §4, §5

[9] = tested on: Staphylococcus aureus (MRSA 252); assay: as above; conditions: 10^6 CFU/ml, 18h at 37 °C
Method: as §1, §2, §3, §4, §5

[10] = tested on: Staphylococcus haemolyticus (CHUG-Shae1); assay: as above; conditions: 10^6 CFU/ml, 18h at 37 °C
Method: as §1, §2, §3, §4, §5

[11] = tested on: Staphylococcus aureus (MSSA476); assay: as above; conditions: 10^6 CFU/ml, 18h at 37 °C
Method: as §1, §2, §3, §4, §5

[12] = tested on: Staphylococcus aureus MRSA 252 CNR HT 2006 0436; assay: Determination of the minimum bactericidal concentration (MBC), macro-method; conditions: 18 hours incubation, initial bacterial load 9500000
Method: (§6) The MBC against two different strains of Staphylococcus aureus, one susceptible to methicillin (MSSA 476 CNR HT 2006 0437) and one resistant to methicillin (MRSA 252 CNR HT 2006 0436) obtained from Centre National de Reference des Staphylocoques (Lyon, France) were determined using a macro-method. Sterile tubes were filled with a primary bacterial inoculum prepared in Mueller Hinton broth as above (10^6 CFU/ml of final inoculum) and pyrrolic compounds were added at twofold serial concentrations (0.5-128 mg/L of final concentrations for 3h and 3i and 0.0625-128mg/L of final concentration for 3n). After 18 hours incubation of cultures, ten-fold serial dilutions of the cultures with no visible bacterial growth and of the first tube showing visible bacterial growth were prepared. Then 100µl of each dilution were inoculated to Mueller Hinton agar media for 24-48 hours. CFU counts were then determined and the MBC corresponded to the minimal pyrrolic compound concentration for which 99.9% of more bacterial cells were killed after 18 hours of incubation.
(§7) However, this reduction was only 1-2 log CFU/ml, and thus MBC could not be determined (tables VI and VII). Table VI: MBC against Staphylococcus aureus MRSA 252 CNR HT 2006 0436

[13] = tested on: Staphylococcus aureus MSSA 476 CNR HT 2006 0437; assay: as above; conditions: 18 hours incubation, initial bacterial load 7,70E+05
Method: as §6, §7

Row | SMILES | MIC [1] [mg/L] | MIC [2] [mg/L] | MIC [3] [mg/L] | MIC [4] [mg/L] | MIC [5] [mg/L] | MIC [6] [mg/L] | MIC [7] [mg/L] | MIC [8] [mg/L] | MIC [9] [mg/L] | MIC [10] [mg/L] | MIC [11] [mg/L] | CFU counts (bacterial load) ([12]; concentration 0,5 mg/L) | CFU counts (bacterial load) ([12]; concentration 1 mg/L) | CFU counts (bacterial load) ([12]; concentration 2 mg/L) | CFU counts (bacterial load) ([12]; concentration 4 mg/L) | CFU counts (bacterial load) ([12]; concentration 8 mg/L) | CFU counts (bacterial load) ([12]; concentration 16 mg/L) | CFU counts (bacterial load) ([12]; concentration 32 mg/L) | CFU counts (bacterial load) ([12]; concentration 64 mg/L) | CFU counts (bacterial load) ([12]; concentration 128 mg/L) | other results
1 | CC(=O)c1c(C)[nH]c(C(c2ccc(Cl)cc2)c2[nH]c(C)c(C(C)=O)c2C)c1C [3c] | 8 (≈ 20.2 µM) | > 32 | > 32 | 8 (≈ 20.2 µM) | 4 (≈ 10.1 µM) | > 32 | > 32 | > 32 | 8 (≈ 20.2 µM) | 16 (≈ 40.3 µM) | 4 (≈ 10.1 µM) |  |  |  |  |  |  |  |  |  | 
2 | CC(=O)c1c(C)[nH]c(C(c2[nH]c(C)c(C(C)=O)c2C)c2csc3ccccc23)c1C [3i] | 1 (≈ 2.39 µM) | > 32 | > 32 | 1 (≈ 2.39 µM) | 0.5 (≈ 1.19 µM) | > 32 | > 32 | > 32 | 1 (≈ 2.39 µM) | 4 (≈ 9.56 µM) | 0.5 (≈ 1.19 µM) | 4,70E+07 CFU/ml | 5,20E+05 CFU/ml | 2,40E+05 CFU/ml | 5,60E+05 CFU/ml | 2,80E+05 CFU/ml | 2,80E+05 CFU/ml | 5,00E+05 CFU/ml | 4,80E+05 CFU/ml | 1,00E+06 CFU/ml | CFU counts (bacterial load) ([13]; concentration 0,5 mg/L): 1,46E+08 CFU/ml; CFU counts (bacterial load) ([13]; concentration 1 mg/L): 6,00E+07 CFU/ml; CFU counts (bacterial load) ([13]; concentration 2 mg/L): 3,55E+06 CFU/ml; CFU counts (bacterial load) ([13]; concentration 4 mg/L): 2,72E+05 CFU/ml; CFU counts (bacterial load) ([13]; concentration 8 mg/L): 3,01E+05 CFU/ml; CFU counts (bacterial load) ([13]; concentration 16 mg/L): 3,51E+05 CFU/ml; CFU counts (bacterial load) ([13]; concentration 32 mg/L): 3,41E+05 CFU/ml; CFU counts (bacterial load) ([13]; concentration 64 mg/L): 3,21 E+05 CFU/ml; CFU counts (bacterial load) ([13]; concentration 128 mg/L): 1,47E+06 CFU/ml
3 | CC(=O)c1c(C)[nH]c(C(c2[nH]c(C)c(C(C)=O)c2C)c2cccc3ccccc23)c1C [3h] | 2 (≈ 4.85 µM) | > 32 | > 32 | 4 (≈ 9.7 µM) | 1 (≈ 2.42 µM) | > 32 | > 32 | > 32 | 2 (≈ 4.85 µM) | 4 (≈ 9.7 µM) | 1 (≈ 2.42 µM) | 2,10E+08 CFU/ml | 7,50E+07 CFU/ml | 5,60E+05 CFU/ml | 5,50E+05 CFU/ml | 2,40E+05 CFU/ml | 3,20E+05 CFU/ml | 4,20E+05 CFU/ml | 5,59E+05 CFU/ml | 6,28E+05 CFU/ml | CFU counts (bacterial load) ([13]; concentration 2 mg/L): 1,63E+08 CFU/ml; CFU counts (bacterial load) ([13]; concentration 4 mg/L): 3,20E+05 CFU/ml; CFU counts (bacterial load) ([13]; concentration 8 mg/L): 3,34E+05 CFU/ml; CFU counts (bacterial load) ([13]; concentration 16 mg/L): 3,20E+05 CFU/ml; CFU counts (bacterial load) ([13]; concentration 32 mg/L): 3,70E+05 CFU/ml; CFU counts (bacterial load) ([13]; concentration 64 mg/L): 3,90E+05 CFU/ml; CFU counts (bacterial load) ([13]; concentration 128 mg/L): 4,30E+05 CFU/ml
4 | COC(=O)c1cccc(C(c2[nH]c(C)c(C(C)=O)c2C)c2[nH]c(C)c(C(C)=O)c2C)c1 [3j, Methyl-3-[bis(4-acetyl-3,5-dimethyl-1H-pyrrol-2-yl)methyl]benzoate] | 16 (≈ 38 µM) | > 32 | > 32 | 16 (≈ 38 µM) | 4 (≈ 9.51 µM) | > 32 | > 32 | > 32 | 8 (≈ 19 µM) | 16 (≈ 38 µM) | 4 (≈ 9.51 µM) |  |  |  |  |  |  |  |  |  | 
